Reference: US8993566B2, “Quinoline compound composing 1,2,4-triazine-dione and use thereof” (Wuhan Shengyun Biopharma Co., Ltd., priority 2012, dated 2015)
Values after ≈ are worked out from the molar mass of the structure shown.

Legend:
[1] = target: T1, c-Met kinase (His-tagged recombinant human Met (amino acids 974-end)) (Homo sapiens, UniProt P08581); experiment: c-Met Enzyme Activity Inhibition Assay (ELISA); assay type: biochemical; conditions: 50 pM c-Met, 5 μM ATP, room temperature 20 min
T1 construct: His-tagged recombinant human Met (amino acids 974-end); His
Description: c-Met Enzyme Activity Inhibition Assay
The assay for the determination of c-Met kinase activity is based on an enzyme linked immunosorbant assay (ELISA). A compound of Formula I, 50 pM c-Met (His-tagged recombinant human Met (amino acids 974-end), expressed by baculovirus), and 5 μM ATP in an assay buffer (25 mM MOPS, pH 7.4, 5 mM MgCl2, […], 100 μM sodium orthovanadate, 0.01% Triton X-100, 1 mM DTT, final DMSO concentration 1% (v/v)) were incubated on a plate coated with 0.25 mg/mL POT at room temperature for 20 min. The reaction mixture was removed by washing and the phosphorylated polymer substrate was detected with 0.2 μg/mL phosphotyrosine specific monoclonal antibody (PY20) conjugated to horseradish peroxidase (HRP). After the addition of 1M phosphoric acid to stop the development, the chromogenic substrate (TMB) color was quantitated by spectrophotometry at 450 nm.

[2] = test system: human gastric cancer cell MKN-45; experiment: In vitro anti-tumor cell activity (MTT), MKN-45; assay type: cell-based; conditions: MKN-45 cells, MTT, 72 h, Bliss method
Description: (§1) The digested cell solution was poured into a centrifuge tube, to which a culture media was added to stop the digestion. The centrifuge tube was centrifuged at 800 r/min for 10 min, the supernatant was removed gently and then 5 mL of the culture media was added. The cells were pipetted and mixed homogeneously. 10 μL cell suspension was taken into a cell counting plate for counting, wherein the cell concentration was adjusted to 10^4 cells/well. To each well of a 96-well plate, except for A1 well as blank control, was added 100 μL of the cell suspension. The 96-well plate was placed in an incubator and cultivated for 24 h. […] The 96-well plate was placed in an incubator and cultivated for 72 h. (3) The culture media containing the compounds in the 96-well plate was removed, and the cells were washed with phosphate buffered solution (PBS) twice. To each well was added 100 μL MTT (tetrazole) (0.5 mg/mL), after placing the plate in an incubator to incubate for 4 h, the MTT solution was removed and 100 μL dimethyl sulfoxide was added. The reaction product of survival cells with MTT, i.e. formazan, was dissolved completely by oscillation on a magnetic oscillator, and then placed into a microplate reader to measure the results, and the IC50 values of compounds could be deduced by Bliss method.

[3] = test system: human hepatoma carcinoma cell line SMMC-7721; experiment: In vitro anti-tumor cell activity (MTT), SMMC-7721; assay type: cell-based; conditions: SMMC-7721 cells, MTT, 72 h, Bliss method
Description: as §1

[4] = test system: human nonsmall-cell lung cancer cell H460; experiment: In vitro anti-tumor cell activity (MTT), H460; assay type: cell-based; conditions: H460 cells, MTT, 72 h, Bliss method
Description: as §1

[5] = test system: human colon cancer cell HT-29; experiment: In vitro anti-tumor cell activity (MTT), HT-29; assay type: cell-based; conditions: HT-29 cells, MTT, 72 h, Bliss method
Description: as §1

T1 sequence (P08581 956-1390): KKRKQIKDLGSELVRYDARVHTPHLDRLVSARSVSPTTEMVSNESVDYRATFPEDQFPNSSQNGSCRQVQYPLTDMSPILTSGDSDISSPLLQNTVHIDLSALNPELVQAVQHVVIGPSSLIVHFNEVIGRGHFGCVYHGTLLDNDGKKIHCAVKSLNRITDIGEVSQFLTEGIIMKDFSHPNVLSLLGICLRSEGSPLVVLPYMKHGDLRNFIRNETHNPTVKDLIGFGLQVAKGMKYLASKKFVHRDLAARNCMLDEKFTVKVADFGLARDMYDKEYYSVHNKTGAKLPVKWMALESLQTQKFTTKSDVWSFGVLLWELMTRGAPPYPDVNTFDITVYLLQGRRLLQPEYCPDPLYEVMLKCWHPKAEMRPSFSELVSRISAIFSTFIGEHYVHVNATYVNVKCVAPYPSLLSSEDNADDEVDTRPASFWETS

| IC50 ([1]; read-out: IC50 for inhibiting c-Met kinase (converted)) [nM] | IC50 ([2]; Homo sapiens, read-out: MKN-45 IC50) [µg/mL] | IC50 ([3]; Homo sapiens, read-out: SMMC-7721 IC50) [µg/mL] | IC50 ([4]; Homo sapiens, NCI-H460, read-out: H460 IC50) [µg/mL] | IC50 ([5]; Homo sapiens, read-out: HT-29 IC50) [µg/mL] | Molecule | IC50 for inhibiting c-Met kinase [1] [µg/mL] | MKN-45 IC50 [2] [µg/mL] | SMMC-7721 IC50 [3] [µg/mL] | H460 IC50 [4] [µg/mL] | HT-29 IC50 [5] [µg/mL] |
| --- | --- | --- | --- | --- | --- | --- | --- | --- | --- | --- |
|  |  |  |  |  | N-[3-fluoro-4-[6-methoxy-7-[3-(1-piperidinyl)propyloxy]quinolin]-4-oxy]phenyl]-2-(2-fluorophenyl)-4-allyl-3,5-dicarbonyl-2,3,4,5-tetrahydro-1,2,4-triazine-6-carboxamide [Example 40] | 5.1 | 0.05 | 3.1 | 1.0 | 0.26 |
| 241 | 0.009 (≈ 0.0128 µM) | 0.11 (≈ 0.156 µM) | 0.28 (≈ 0.397 µM) | 0.14 (≈ 0.198 µM) | COc1cc2c(Oc3ccc(NC(=O)c4nn(-c5ccc(F)c(F)c5)c(=O)n(C)c4=O)cc3F)ccnc2cc1OCCCN1CCN(C)CC1 [Example 20, N-[3-fluoro-4-[6-methoxy-7-[3-(4-methyl-1-piperazinyl)propyloxy]quinolin-4-oxy]phenyl]-2-(3,4-difluorophenyl)-4-methyl-3,5-dioxo-2,3,4,5-tetrahydro-1,2,4-triazine-6-carboxamide] |  |  |  |  |  |
|  |  |  |  |  | C=CCn1c(=O)c(C(=O)Nc2ccc(Oc3ccnc4cc(OCCCN5CCOCC5)c(OC)cc34)c(F)c2)nn(-c2ccc(Br)cc2)c1=O [Example 39] | 1.8 | 0.19 | 2.1 | 1.4 | 0.83 |
|  |  |  |  |  | COc1cc2c(Oc3ccc(NC(=O)c4nn(-c5ccc(Br)cc5)c(=O)n(C)c4=O)cc3F)ccnc2cc1OCCCN1CCCCC1 [Example 7] | 0.048 | 0.033 | 0.21 | 0.13 | 0.27 |
|  |  |  |  |  | N-[3-fluoro-4-[6-methoxy-7-[3-(1-piperidinyl)propyloxy]quinolin]-4-oxy]phenyl]-2-phenyl-4-benzyl-3,5-dicarbonyl-2,3,4,5-tetrahydro-1,2,4-triazine-6-carboxamide [Example 46] |  | 0.1 | 1.4 | 0.8 | 0.3 |
|  |  |  |  |  | N-[3-fluoro-4-[6-methoxy-7-[3-(1-piperidinyl)propyloxy]quinolin-4-oxy]phenyl]-2-(4-methylphenyl)-4-methyl-3,5-dicarbonyl-2,3,4,5-tetrahydro-1,2,4-triazine-6-carboxamide [Example 12] | 0.18 |  | 0.74 | 0.12 | 0.11 |
|  |  |  |  |  | COc1cc2c(Oc3ccc(NC(=O)c4nn(-c5ccc(C)cc5)c(=O)n(C)c4=O)cc3F)ccnc2cc1OCCCN1CCN(C)CC1 [Example 15, N-[3-fluoro-4-[6-methoxy-7-[3-(4-methyl-1-piperazinyl)propyloxy]quinolin-4-oxy]phenyl]-2-(4-methylphenyl)-4-methyl-3,5-dicarbonyl-2,3,4,5-tetrahydro-1,2,4-triazine-6-carboxamide;] | 0.009 |  | 0.79 | 0.18 | 0.5 |
|  |  |  |  |  | N-[3-fluoro-4-[6-methoxy-7-[3-(4-morpholinyl)propyloxy]quinolin-4-oxy]phenyl]-2-(4-methylphenyl)-4-methyl-3,5-dicarbonyl-2,3,4,5-tetrahydro-1,2,4-triazine-6-carboxamide [Example 13] | 0.25 |  | 0.67 | 0.28 | 0.19 |
|  |  |  |  |  | N-[3-fluoro-4-[6-methoxy-7-[3-(4-morpholinyl)propyloxy]quinolin]-4-oxy]phenyl]-2-(2,4-dichlorophenyl)-4-benzyl-3,5-dicarbonyl-2,3,4,5-tetrahydro-1,2,4-triazine-6-carboxamide [Example 43] |  | 0.07 | 1.4 | 0.65 | 0.32 |
